Experimental data published in patent US8388990B2, “Acidified chlorite compositions containing nitrogenous stabilizers and systems and methods related thereto” (Ecolab USA Inc., priority 2002, dated 2013).
Read-outs that look alike come from different tables or passages of the source. Values belong to the molecule of their own block, whether it stands above or below them.

Experiments:
[1] = Colorant effect on chlorite consumption (Example 2); assay type: physicochemical; settings: disinfecting composition A of Example 1 with essentially equimolar colorant: 0.41% Blue #1, 0.26% Blue #2, 0.30% Yellow #5, 0.25% Yellow #6, 0.28% Red #40
Experimental: To determine how increasing levels of colorant causes a more rapid consumption of chlorite, the disinfecting composition A of Example 1 was prepared with either 0% (control), 0.03%, 0.15%, 0.30% or 0.60% by weight FD&C Yellow #5.
This experiment was then repeated using essentially equimolar concentrations of the following FD&C colorants: 0.41% Blue #1, 0.26% Blue #2, 0.30% Yellow #5, 0.25% Yellow #6, 0.28% Red #40 and no colorant (control).

[2] = Assay for measuring the Reduced Chlorite Demand Factor (Example 9); assay type: physicochemical; settings: pH 2.5
[3] = for Percent of Initial NaClO2 Remaining 2 Hours after Mixing / Percent of Initial NaClO2 Remaining 5 Hours after Mixing: buffer
[4] = Effect of nitrogenous stabilizer on chlorite consumption in a nil colorant composition (Example 7); assay type: physicochemical
[5] = buffer, pH 2.5
[6] = Chlorine dioxide generation by UV/Visible spectrophotometry at 360 nm (Example 6); assay type: physicochemical; settings: pH 2.5, no colorant
[7] = stabilizer at 1.33 M, five hours after mixing, versus control without stabilizer
[8] = composition with FD&C Yellow #5, pH 2.5, versus control
[9] = level (Wt %): ethylenediamine 1.0, monoethanolamine 2.0, glycine 2.5

Molecule: Aniline Sulfonic Acid
Percent of Initial NaClO2 After 2 Hours ([3]; pH 2.5): 90% | Percent of Initial NaClO2 After 5 hours ([3]; pH 2.5): 75% | effect on rate of sodium chlorite consumption / chlorite longevity (in words) ([3]; pH 2.5): promote greater chlorite longevity

Molecule: NS(=O)(=O)O [Sulfamic Acid]
Percent of Initial NaClO2 After 2 Hours ([4]; stabilizer level 0.25 Wt %): 97% | Percent of Initial NaClO2 After 5 hours ([4]; stabilizer level 0.25 Wt %): 94% | Percent of Initial NaClO2 After 2 Hours ([4]; stabilizer level 0.50 Wt %): 97% | Percent of Initial NaClO2 After 5 hours ([4]; stabilizer level 0.50 Wt %): 94% | Reduced Chlorite Demand Factor [2]: 4.5 | Percent of Initial Colorant Remaining 2 Hours after Mixing [5]: 97% | Level of ClO2 after 1 hour ([6]; stabilizer level 0.25 Wt %): 17 ppm | Level of ClO2 after 1 hour ([6]; stabilizer level 0.50 Wt %): 17 ppm | Percent of Initial NaClO2 Remaining 2 Hours after Mixing ([3]; pH 2.5): 98% | Percent of Initial NaClO2 Remaining 5 Hours after Mixing ([3]; pH 2.5): 95% | effect on rate of sodium chlorite consumption / chlorite longevity (in words) ([3]; pH 2.5): significantly impact the rate of sodium chlorite consumption

Molecule: CNS(=O)(=O)O [Methylsulfamic Acid]
effect on rate of sodium chlorite consumption / chlorite longevity (in words) [3, 8]: particularly effective

Molecule: Nc1ccccc1 [Aniline]
effect on rate of sodium chlorite consumption / chlorite longevity (in words) [3, 8]: promote greater chlorite longevity

Molecule: Nc1ccc(S(N)(=O)=O)cc1 [Sulfanilamide]
Reduced Chlorite Demand Factor ([2]; tested at 0.5% due to lower solubility, five hours after mixing): 5.6 | effect on rate of sodium chlorite consumption / chlorite longevity (in words) [3, 8]: promote greater chlorite longevity

Molecule: NCCN [Ethylenediamine]
Reduced Chlorite Demand Factor [2, 7]: 4.0 | Percent of Initial Colorant Remaining 2 Hours after Mixing [5]: 91% | Level of ClO2 after 1 hour [6, 9]: 35 ppm | Percent of Initial NaClO2 Remaining 2 Hours after Mixing ([3]; pH 2.5): 92% | Percent of Initial NaClO2 Remaining 5 Hours after Mixing ([3]; pH 2.5): 80%

Molecule: COc1cc(S(=O)(=O)[O-])c(C)cc1N=Nc1c(O)ccc2cc(S(=O)(=O)[O-])ccc12.[Na+].[Na+] [FD&C Red #40]
Percent of Initial NaClO2 Remaining 5 Hours after Mixing [1]: 60%

Molecule: O=C1/C(=C2\Nc3ccc(S(=O)(=O)[O-])cc3C2=O)Nc2ccc(S(=O)(=O)[O-])cc21.[Na+].[Na+] [FD&C Blue #2]
Percent of Initial NaClO2 Remaining 5 Hours after Mixing [1]: 43%

Molecule: NCC(=O)O [Glycine]
Reduced Chlorite Demand Factor [2, 7]: 3.8 | Percent of Initial Colorant Remaining 2 Hours after Mixing [5]: 61% | Level of ClO2 after 1 hour [6, 9]: 105 ppm | Percent of Initial NaClO2 Remaining 2 Hours after Mixing ([3]; pH 2.5): 78% | Percent of Initial NaClO2 Remaining 5 Hours after Mixing ([3]; pH 2.5): 42%

Second part, the molecule after the results:

Percent of Initial NaClO2 Remaining 5 Hours after Mixing [1]: 18%
Molecule: O=S(=O)([O-])c1ccc(N=Nc2c(O)ccc3cc(S(=O)(=O)[O-])ccc23)cc1.[Na+].[Na+] [FD&C Yellow #6]

Reduced Chlorite Demand Factor [2, 7]: 0.9
Molecule: OCCNCCO [Diethanolamine]

Reduced Chlorite Demand Factor [2, 7]: 4.3 | effect on rate of sodium chlorite consumption / chlorite longevity (in words) [3, 8]: provides longevity benefits
Molecule: NC(N)=O [Urea]

Percent of Initial NaClO2 Remaining 5 Hours after Mixing [1]: <2%
Molecule: CCN(Cc1cccc(S(=O)(=O)[O-])c1)c1ccc(C(=C2C=CC(=[N+](CC)Cc3cccc(S(=O)(=O)[O-])c3)C=C2)c2ccccc2S(=O)(=O)[O-])cc1.[Na+].[Na+] [FD&C Blue #1]

Percent of Initial NaClO2 Remaining 5 Hours after Mixing [1]: 27%
Molecule: O=C([O-])C1=NN(c2ccc(S(=O)(=O)[O-])cc2)C(=O)C1N=Nc1ccc(S(=O)(=O)[O-])cc1.[Na+].[Na+].[Na+] (stereo not shown) [FD&C Yellow #5]

effect on rate of sodium chlorite consumption / chlorite longevity (in words) [3, 8]: solid chlorite longevity benefits
Molecule: NCS(=O)(=O)O [Aminomethanesulfonic Acid]

Reduced Chlorite Demand Factor [2, 7]: 4.1 | Percent of Initial Colorant Remaining 2 Hours after Mixing [5]: 49% | Level of ClO2 after 1 hour [6, 9]: 66 ppm | Percent of Initial NaClO2 Remaining 2 Hours after Mixing ([3]; pH 2.5): 86% | Percent of Initial NaClO2 Remaining 5 Hours after Mixing ([3]; pH 2.5): 45%
Molecule: NCCO [Monoethanolamine]

effect on rate of sodium chlorite consumption / chlorite longevity (in words) [3, 8]: solid chlorite longevity benefits
Molecule: NCCS(=O)(=O)O [Taurine]
